From ChEMBL document CHEMBL5576120, “Discovery and In Vivo Efficacy of AZ-PRMT5i-1, a Novel PRMT5 Inhibitor with High MTA Cooperativity” (J Med Chem, 2024) come the findings set out here.

In brackets after ≈: the same amount, converted by molar mass. A value given as a limit tells only on which side of the number the result lay.

By logD is commonly meant the decadic logarithm of the distribution of all forms, ionised or not, between an organic phase and buffer at a given pH. Low values mean a more hydrophilic compound, high ones a more lipophilic compound. In general, Papp A→B refers to the apparent permeability from the apical to the basolateral side of a cell layer. Low values mean poor permeation, high ones ready permeation. For orientation: solubility means the concentration that dissolves in the medium under given conditions. High values mean a readily soluble substance, low ones a poorly soluble substance. As usually defined, the bioavailability is the share of a dose that reaches the circulation, judged against a reference dose that is usually intravenous. The term half-life denotes how long it takes for the measured level to halve. Lower therefore signals rapid decline. One may read the IC50 as the concentration needed to halve the response being measured.

A short description of series [1]: physchem. The settings on record: buffer, pH 7.4.
Description: Lipophilicity, logD of compound at pH 7.4
The nature of another series: in vitro. Conditions: human, Caco-2.
Series [2] in a line: physchem. Conditions: phosphate buffer, pH 7.4.
The nature of series [3]: Intrinsic clearance in rat hepatocytes assessed per million cells. Conditions: read-out: CLH. The class given is ADME, cell-based, Hepatocyte.
Series [4] can be described thus: Oral bioavailability at steady state in Wistar Han rat at 1 mg/kg. The class given is ADME, organism-based. Conditions: in vivo.
Series [5] can be described thus: Volume of distribution at steady state in Wistar Han rat at 1 mg/kg, po or 0.5 mg/kg, iv. The series is classed as ADME, organism-based. Conditions: in vivo.
Series [6] can be described thus: Half life in Wistar Han rat at 1 mg/kg, po or 0.5 mg/kg, iv. The class given is ADME, organism-based. The settings on record: in vivo.
Series [7] has as its target Protein arginine N-methyltransferase 5 (Homo sapiens, UniProt O14744).
Description: Inhibition of PRMT5 in human HCT-116 cells with MTAP KO assessed as decrease in SMDA level incubated for 48 hrs by immunofluorescence analysis
Series [8] addresses T1, PRMT5/MEP50 complex (Homo sapiens, UniProt O14744). The experiment in a line: biochemical.
Description: Inhibition of PRMT5 (1 to 637 residues)/MEP504 (2 to 342 residues)(unknown origin) expressed in baculovirus infected Sf21 insect cells using histone H4/SAM as substrate incubated for 5 hrs in presence of MTA by MTase Glo assay
The target of series [9] is T1, PRMT5/MEP50 complex. The experiment in a line: biochemical. The source holds these as a separate data set.
Description: Inhibition of PRMT5 (1 to 637 residues)/MEP504 (2 to 342 residues)(unknown origin) expressed in baculovirus infected Sf21 insect cells using histone H4/SAM as substrate incubated for 5 hrs by MTase Glo assay
A further series has as its system HCT-116. The experiment in a line: Cooperativity fold, ratio of IC50 for PRMT5 in human HCT-116 cells expressing wild-type MTAP assessed as decrease in SMDA level to IC50 for PRMT5 in human HCT-116 cells with MTAP KO assessed as decrease in SMDA level. The class given is cell-based.
Series [10] is described as follows: Intrinsic clearance in human hepatocytes assessed per million cells. Conditions: read-out: CLH. The series is classed as ADME, cell-based, Hepatocyte.
The nature of series [11]: Volume of distribution at steady state in CD-1 mouse at 1 mg/kg, po or 0.5 mg/kg, iv. The series is classed as ADME, organism-based. Conditions: in vivo.
Series [12] can be described thus: Oral bioavailability in CD-1 mouse at 1 mg/kg. The settings on record: in vivo. The class given is ADME, organism-based.
Series [13] in a line: Half life in CD-1 mouse at 1 mg/kg, po or 0.5 mg/kg, iv. The class given is ADME, organism-based. Conditions: in vivo.

Sequence of Protein arginine N-methyltransferase 5 (O14744 whole entry): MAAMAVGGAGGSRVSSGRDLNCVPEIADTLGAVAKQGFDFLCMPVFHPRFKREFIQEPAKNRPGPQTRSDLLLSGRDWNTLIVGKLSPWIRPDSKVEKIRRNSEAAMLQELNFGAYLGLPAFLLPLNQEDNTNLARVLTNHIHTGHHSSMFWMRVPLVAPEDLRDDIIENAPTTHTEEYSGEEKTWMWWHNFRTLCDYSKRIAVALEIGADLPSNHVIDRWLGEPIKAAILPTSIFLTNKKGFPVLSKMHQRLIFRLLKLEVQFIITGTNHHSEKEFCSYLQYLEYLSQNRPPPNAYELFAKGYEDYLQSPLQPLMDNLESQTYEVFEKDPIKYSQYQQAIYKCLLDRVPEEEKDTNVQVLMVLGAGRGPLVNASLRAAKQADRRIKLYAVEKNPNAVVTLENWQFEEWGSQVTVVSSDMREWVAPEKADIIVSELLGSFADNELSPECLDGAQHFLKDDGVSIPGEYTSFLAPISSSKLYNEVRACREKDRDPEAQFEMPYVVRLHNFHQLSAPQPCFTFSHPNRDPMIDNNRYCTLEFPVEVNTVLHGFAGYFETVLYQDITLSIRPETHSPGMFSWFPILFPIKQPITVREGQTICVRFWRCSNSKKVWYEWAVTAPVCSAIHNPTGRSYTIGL
T1 sequence (O14744 whole entry): as above
T1 sequence (Q9BQA1 whole entry, further chain): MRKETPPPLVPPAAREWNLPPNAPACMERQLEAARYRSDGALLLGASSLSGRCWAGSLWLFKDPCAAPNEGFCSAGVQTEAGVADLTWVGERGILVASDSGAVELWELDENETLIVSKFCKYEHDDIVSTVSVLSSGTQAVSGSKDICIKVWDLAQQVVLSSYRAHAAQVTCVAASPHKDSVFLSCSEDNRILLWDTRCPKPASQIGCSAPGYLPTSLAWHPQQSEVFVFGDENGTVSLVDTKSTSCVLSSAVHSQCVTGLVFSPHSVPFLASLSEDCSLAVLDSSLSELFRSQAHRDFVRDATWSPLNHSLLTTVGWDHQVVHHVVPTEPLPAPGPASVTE
Description for in vitro: Apparent permeability across apical to basal side of human Caco-2 cells at 10 uM

In “physchem [1]”, `Nc1ccc2oc(CN3C(=O)c4cc(F)ccc4[C@]34CCN(Cc3ccc(F)cc3)C4=O)cc2n1` gave a logD of 2.3. Besides, the apical-to-basolateral permeability (Papp A→B) at 10 µM in the series “in vitro” stood at 72 ×10⁻⁶ cm/s. This compound also registered a solubility at 24 h in the series “physchem [2]” of 243 µM (≈ 115 µg/mL). Further, the hepatocyte CLint in series [3] was 59 µL/min/1e6 cells.

Consider `N=C(N)Nc1ncc(CN2C(=O)c3cc(F)ccc3C2C(=O)NCc2ccc(F)cc2)s1` (stereo not given), for which, in “physchem [1]”, the pH-dependent lipophilicity (logD) turned out to be 2.5. In [3], the hepatocyte CLint worked out at 13 µL/min/1e6 cells.

On to `O=C(NCc1ccc(F)cc1)C1c2ccccc2C(=O)N1Cc1cc2cccnc2[nH]1` (stereo not given), for which, in the series “physchem [1]”, the pH-dependent lipophilicity (logD) is 3.3. The apparent permeability from apical to basolateral (Papp A→B) at 10 µM in the series “in vitro” is 90 ×10⁻⁶ cm/s. Besides, the hepatocyte CLint in [3] amounted to 131 µL/min/1e6 cells.

Turning to `CNC(=N)Nc1ncc(CN2C(=O)c3cc(F)ccc3C2C(=O)NCc2ccc(F)cc2)s1` (stereo not given), in series [4], the bioavailability is 20%. This compound also came in with a pH-dependent lipophilicity (logD) in the series “physchem [1]” of 2.7. Besides, in “in vitro”, the apical-to-basolateral permeability (Papp A→B) at 10 µM was found to be 14 ×10⁻⁶ cm/s. This compound also showed a solubility at 24 h in the series “physchem [2]” of 8 µM (≈ 3.76 µg/mL). Also, the hepatocyte CLint in series [3] was 19 µL/min/1e6 cells. This compound showed a Vdss in [5] of 2.6 L/kg. Also, the half-life in series [6] is 42.6 min.

In turn, `N=C(N)Nc1cc(CN2C(=O)c3ccccc3C2C(=O)NCc2ccc(F)cc2)ccn1` (stereo not given) displayed a logD in “physchem [1]” of 0.9. Moreover, the IC50 in series [7] was more than 30000 nM; against PRMT5/MEP50 complex [8], 2950 nM; against PRMT5/MEP50 complex [9], 27000 nM. The hepatocyte CLint in series [3] is 17 µL/min/1e6 cells.

`O=C1c2cc(F)ccc2[C@]2(CCN(Cc3ccc(F)cc3)C2=O)N1Cc1cc2cnccc2[nH]1` gave a log distribution coefficient (logD) in “physchem [1]” of 2.4. Besides, the 50% inhibitory concentration (IC50) in [7] is more than 30000 nM; against PRMT5/MEP50 complex [8], 970 nM. Besides, the hepatocyte CLint in [3] came to 3 µL/min/1e6 cells.

In turn, `O=C1c2cc(F)ccc2[C@]2(CCN(Cc3ccc(F)cc3)C2=O)N1Cc1cc2cccnc2[nH]1` displayed a logD in “physchem [1]” of 3.4. For the same compound, the apical-to-basolateral permeability (Papp A→B) at 10 µM in “in vitro” was 29 ×10⁻⁶ cm/s. In addition, in series [3], the hepatocyte CLint was found to be 193 µL/min/1e6 cells.

On to `O=C1c2cc(F)ccc2[C@@]2(CCN(Cc3ccc(F)cc3)C2=O)N1Cc1cc2cccnc2[nH]1`, for which the logD in the series “physchem [1]” is 3.4. For the same compound, in series [3], the hepatocyte CLint was 188 µL/min/1e6 cells.

For `COc1cccc2c1C(=O)N(Cc1cnc(NC(=N)N)s1)C2C(=O)NCc1ccc(F)cc1` (stereo not given), the log distribution coefficient (logD) in “physchem [1]” was 1.9. The hepatocyte CLint in [3] stood at 11 µL/min/1e6 cells.

In turn, `COc1cc(N)nc2cc(CN3C(=O)c4cc(F)ccc4[C@]34CCN(Cc3ccc(F)cc3)C4=O)[nH]c12` had a logD in the series “physchem [1]” of 1.8. In addition, the apparent permeability from apical to basolateral (Papp A→B) at 10 µM in the series “in vitro” stood at 1.4 ×10⁻⁶ cm/s. The same compound returned a solubility at 24 h in “physchem [2]” of 610 µM (≈ 307 µg/mL). Besides, 4 nM corresponded to half-maximal inhibition in series [7] (IC50). Besides, in the series with HCT-116, the Ratio IC50 is 7.2. For the same compound, the hepatocyte CLint in series [3] came to 7 µL/min/1e6 cells.

In the case of `Nc1ccc2cc(CN3C(=O)c4cc(F)ccc4[C@]34CCN(Cc3ccc(F)cc3)C4=O)[nH]c2n1`, the logD in “physchem [1]” came to 2.5. Moreover, the Papp A→B at 10 µM in “in vitro” amounted to 31 ×10⁻⁶ cm/s. Also, the IC50 came to 140 nM in [7] and 9 nM on PRMT5/MEP50 complex [8]. Further, the Ratio IC50 with HCT-116 is 31. In series [3], the hepatocyte CLint stood at 12 µL/min/1e6 cells.

In turn, `N#Cc1ccc2c(c1)C(C(=O)NCc1ccc(F)cc1)N(Cc1cnc(NC(=N)N)s1)C2=O` (stereo not given) registered a logD in “physchem [1]” of 2.1. In series [3], the hepatocyte CLint is 13 µL/min/1e6 cells.

In turn, `Nc1cc(C(F)F)c2[nH]c(CN3C(=O)c4cc(F)ccc4[C@]34CCN(Cc3ccc(F)cc3)C4=O)cc2n1` showed a pH-dependent lipophilicity (logD) in the series “physchem [1]” of 2.9. Also, the Papp A→B at 10 µM in “in vitro” was 56 ×10⁻⁶ cm/s. Moreover, the solubility at 24 h in the series “physchem [2]” worked out at 86 µM (≈ 45 µg/mL). Besides, the hepatocyte CLint in [3] was found to be 15 µL/min/1e6 cells.

With `Nc1ccc2[nH]c(CN3C(=O)c4cc(F)ccc4[C@]34CCN(Cc3ccc(F)cc3)C4=O)cc2n1`, the hepatocyte CLint in series [10] is less than 1 µL/min/1e6 cells; in series [3] it was 13 µL/min/1e6 cells. Besides, the Vdss in series [11] came out at 2.7 L/kg; in series [5] it was 7.8 L/kg. The same compound yielded a logD in the series “physchem [1]” of 2.2. Moreover, the apparent permeability from apical to basolateral (Papp A→B) at 10 µM in “in vitro” was 2.7 ×10⁻⁶ cm/s. The compound further came in with a solubility at 24 h in “physchem [2]” of 106 µM (≈ 50.2 µg/mL). This compound had a bioavailability in series [12] of 3%. Also, the values for the half-life in [13] and in series [6] were 53.4 min and 30 min, respectively.
